What was measured:
Format in all cases: cell-based
BHK-21 cells = assay: Anti-fibrosis activity test: inhibition of BHK-21 cell proliferation (CCK-8); settings: Mesocricetus auratus, BHK-21, 48 h
How it was run: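 Read-out: CCK-8 absorbance at 450 nm after 2 h, giving proliferation inhibition (1−Ai/Ao)×100% versus blank control, from which IC50 was derived. Cells had been treated with compounds for 48 h after 24 h adherence at 37° C. Pirfenidone served as positive control.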

[1] = system: human lung fibroblasts HFL1; assay: Anti-fibrosis activity test: inhibition of proliferation of human lung fibroblasts HFL1 (CCK-8); settings: Homo sapiens, HFL1, 48 h
How it was run: (§1)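 Proliferation inhibition is measured by CCK-8 after cells plated at 2×10^4 cells/mL attach overnight (24 h) and then receive test compounds for 48 h at several concentrations, each in triplicate. Optical density at 450 nm gives IR = (1−Ai/Ao)×100%, from which IC50 is computed.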

[2] = system: human hepatic stellate cells LX-2; assay: Anti-fibrosis activity test: inhibition of proliferation of human hepatic stellate cells LX-2 (CCK-8); settings: Homo sapiens, 48 h
How it was run: as §1

[3] = system: human fibrosarcoma cells HT-1080; assay: Anti-fibrosis activity test: inhibition of proliferation of human fibrosarcoma cells HT-1080 (CCK-8); settings: Homo sapiens, HT-1080, 48 h
How it was run: as §1

[4] = system: human dermal fibroblasts CCC-ESF-1; assay: Anti-fibrosis activity test: inhibition of proliferation of human dermal fibroblasts CCC-ESF-1 (CCK-8); settings: Fibroblast
How it was run: as §1

[5] = system: human embryonic lung fibroblast IMR-90; assay: Anti-fibrosis activity test: inhibition of proliferation of human embryonic lung fibroblast IMR-90 (CCK-8)
How it was run: as §1

[6] = system: cardiac fibroblast RAT-iCell-C002; assay: Anti-fibrosis activity test: inhibition of proliferation of cardiac fibroblast RAT-iCell-C002 (CCK-8); settings: Cardiac fibroblast, 48 h
How it was run: as §1

[7] = system: mouse macrophages (RAW264.7); assay: Lipopolysaccharide-induced NO secretion in macrophages (Griess); settings: Mus musculus, RAW264.7, 24 h, RAW264.7, LPS 1 μg/ml, a/b isomers given as first/second symbol, read-out: IC50 (μM), inhibition of lipopolysaccharide-induced NO secretion in macrophages
Protocol: The effects of the compounds of the present application on the lipopolysaccharide-induced NO secretion in macrophage was tested Principle: Anti-inflammatory drug activity screening is to detect the inhibitory effect of compounds on NO production in the mouse macrophages (RAW264.7). When immune cells are stimulated by microbial endotoxin, inflammatory mediators, etc., a large amount of induced NO synthase (iNOS) is produced, and thus NO is generated for immune response. Accordingly, the inhibition of NO production can serve as a direct indicator of the anti-inflammatory activity of the compound. The activity of the compound to inhibit NO production at the cellular level is directly evaluated in the abovementioned test model, thereby reflecting the anti-inflammatory activity of the compound. In this experiment, the content of NO in the medium was detected by Gris kit (Molecular probes, G-7921). Macrophages (Raw264.7) were cultured in DMEM medium containing 10% fetal bovine serum, with the cell concentration adjusted. The cells were seeded in 24-well cell culture plates, cultured in an incubator, and the test samples in different concentrations were added every other day. The blank medium was used as a blank control, and commercially available indomethacin and resveratrol were employed as positive controls. After the addition of lipopolysaccharide (LPS, 1 μg/ml), incubation was performed for 24 hours. Then the supernatant culture solution was taken, to […] reagent was added, and the absorbance value was measured by a microplate reader at 548 nm. Inhibition rate=([…])×100%.

[8] = CCK-8, 48 hours after administration
[9] = human lung fibroblasts HFL1, CCK-8, 48 hours
[10] = human hepatic stellate cells LX-2, CCK-8, 48 hours
[11] = human fibrosarcoma cells HT-1080, CCK-8, 48 hours
[12] = human dermal fibroblasts CCC-ESF-1, CCK-8, 48 hours
[13] = human embryonic lung fibroblast IMR-90, CCK-8, 48 hours
[14] = cardiac fibroblast RAT-iCell-C002, CCK-8, 48 hours
[15] = Homo sapiens, CCC-ESF-1 cells, 48 h, CCK-8
[16] = Homo sapiens, IMR-90 cells, 48 h, CCK-8

Structure (SMILES) | IC50 [3, 11] | IC50 [7] | IC50 ([3]; HT-1080 cells, 48 h, CCK-8) | IC50 (BHK-21 cells; [8]) | IC50 [1, 9] | IC50 [2, 10] | IC50 [4, 12] | IC50 [5, 13] | IC50 [6, 14] | IC50 (BHK-21 cells; 48 h, CCK-8) | IC50 ([1]; HFL1 cells, 48 h, CCK-8) | IC50 ([2]; LX-2, 48 h, LX-2 cells, CCK-8) | IC50 [4, 15] | IC50 [5, 16] | IC50 ([6]; RAT-iCell-C002 cells, CCK-8)
O=C1c2c(nc3c(Cl)cccc3c2OCc2ccc(F)cc2)-c2cccn21 [Compound 481b, 5-chloro-9-((4-fluorobenzyl)oxy)-10H-pyrrolizino[1,2-b]quinolin-10-one] | 0.05 to 5 mM | 1 to 10 µM | – | 0.05 to 5 mM | 0.05 to 5 mM | 0.05 to 5 mM | 0.05 to 5 mM | 0.05 to 5 mM | 0.05 to 5 mM | – | – | – | – | – | –
O=C1c2c(nc3c(F)c(N4CCNCC4)ccc3c2OCc2ccc(F)cc2)-c2cccn21 [Compound 485b, 5-fluoro-9-((4-fluorobenzyl)oxy)-6-(piperazin-1-yl)-10H-pyrrolizino[1,2-b]quinolin-10-one] | 0.05 to 5 mM | 1 to 10 µM | – | 0.05 to 5 mM | 0.05 to 5 mM | 0.05 to 5 mM | 0.05 to 5 mM | 0.05 to 5 mM | 0.05 to 5 mM | – | – | – | – | – | –
O=C1c2c(nc3cccc(F)c3c2OCc2cccc(F)c2)-c2cccn21 [Compound 475b, 8-fluoro-9-((3-fluorobenzyl)oxy)-10H-pyrrolizino[1,2-b]quinolin-10-one] | < 0.05 mM | 1 to 10 µM | – | 0.05 to 5 mM | 0.05 to 5 mM | 0.05 to 5 mM | 0.05 to 5 mM | 0.05 to 5 mM | 0.05 to 5 mM | – | – | – | – | – | –
O=C1c2c(n(CCO)c3ccc(F)cc3c2=O)-c2cccn21 [Compound 114a, 7-Fluoro-4-(2-hydroxyethyl)-9H-pyrrolizino[1,2-b]quinoline-9,10(4H)-dione] | 0.05 to 5 mM | 1 to 10 µM | – | < 0.05 mM | 0.05 to 5 mM | 0.05 to 5 mM | 0.05 to 5 mM | 0.05 to 5 mM | 0.05 to 5 mM | – | – | – | – | – | –
O=C1c2c(c(=O)c3ccccc3n2CCN2CCCCC2)-c2cccn21 [Compound 784a, 6-(2-(Piperidin-1-yl)ethyl)-5H-pyrrolizino[2,1-b]quinoline-5,11(6H)-dione] | – | 10 to 50 µM | 0.05 to 5 mM | – | – | – | – | – | – | < 0.05 mM | 0.05 to 5 mM | 0.05 to 5 mM | 0.05 to 5 mM | 0.05 to 5 mM | 0.05 to 5 mM
N#Cc1cccc2c(=O)c3c(n(Cc4ccccc4F)c12)-c1cccn1C3=O [Compound 456a, 4-(2-Fluorobenzyl)-9,10-dioxo-4,10-dihydro-9H-pyrrolizino[1,2-b]quinoline-5-carbonitrile] | 0.05 to 5 mM | 1 to 10 µM | – | 0.05 to 5 mM | 0.05 to 5 mM | < 0.05 mM | 0.05 to 5 mM | 0.05 to 5 mM | 0.05 to 5 mM | – | – | – | – | – | –
O=C1c2c(n(Cc3cccc(Cl)c3)c3c(C(F)(F)F)cccc3c2=O)-c2cccn21 [Compound 455a, 4-(3-Chlorobenzyl)-5-(trifluoromethyl)-9H-pyrrolizino[1,2-b]quinoline-9,10(4H)-dione] | 0.05 to 5 mM | 1 to 10 µM | – | 0.05 to 5 mM | 5 to 20 mM | 0.05 to 5 mM | 0.05 to 5 mM | 5 to 20 mM | 0.05 to 5 mM | – | – | – | – | – | –
CCCOCCOc1c2c(nc3ccccc13)C(=O)n1cccc1-2 [Compound 790b, 11-(2-propoxyethoxy)-5H-pyrrolizino[2,1-b]quinolin-5-one] | – | 1 to 10 µM | 0.05 to 5 mM | – | – | – | – | – | – | 0.05 to 5 mM | 0.05 to 5 mM | 0.05 to 5 mM | 0.05 to 5 mM | 0.05 to 5 mM | 0.05 to 5 mM
CC(C)Oc1c2c(nc3cc(N4CCNCC4)c(F)cc13)-c1cccn1C2=O [Compound 331b, 7-fluoro-9-isopropoxy-6-(piperazin-1-yl)-10H-pyrrolizino[1,2-b]quinolin-10-one] | < 0.05 mM | 1 to 10 µM | – | 0.05 to 5 mM | 0.05 to 5 mM | 0.05 to 5 mM | 0.05 to 5 mM | 0.05 to 5 mM | 0.05 to 5 mM | – | – | – | – | – | –
N#Cc1ccc2c(c1)c(=O)c1c(n2-c2ccc(F)cc2)-c2cccn2C1=O [Compound 199a, 4-(4-Fluorophenyl)-9,10-dioxo-4,10-dihydro-9H-pyrrolizino[1,2-b]quinoline-7-carbonitrile] | 0.05 to 5 mM | 1 to 10 µM | – | < 0.05 mM | 0.05 to 5 mM | 0.05 to 5 mM | 0.05 to 5 mM | 0.05 to 5 mM | 0.05 to 5 mM | – | – | – | – | – | –
O=C1c2c(nc3cccc(C(F)(F)F)c3c2OCc2ccccc2Cl)-c2cccn21 [Compound 472b, 9-((2-chlorobenzyl)oxy)-8-(trifluoromethyl)-10H-pyrrolizino[1,2-b]quinolin-10-one] | 0.05 to 5 mM | 1 to 10 µM | – | 0.05 to 5 mM | 0.05 to 5 mM | 0.05 to 5 mM | 0.05 to 5 mM | 0.05 to 5 mM | 0.05 to 5 mM | – | – | – | – | – | –

Further lines, with some results ahead:

IC50 [3, 11] | IC50 [7] | IC50 ([3]; HT-1080 cells, 48 h, CCK-8) | Structure (SMILES) | IC50 (BHK-21 cells; [8]) | IC50 [1, 9] | IC50 [2, 10] | IC50 [4, 12] | IC50 [5, 13] | IC50 [6, 14] | IC50 (BHK-21 cells; 48 h, CCK-8) | IC50 ([1]; HFL1 cells, 48 h, CCK-8) | IC50 ([2]; LX-2, 48 h, LX-2 cells, CCK-8) | IC50 [4, 15] | IC50 [5, 16] | IC50 ([6]; RAT-iCell-C002 cells, CCK-8)
0.05 to 5 mM | 0.1 to 1 µM | – | C=CCn1c2c(c(=O)c3cc(F)ccc31)C(=O)n1cccc1-2 [Compound 109a, 4-Allyl-7-fluoro-9H-pyrrolizino[1,2-b]quinoline-9,10(4H)-dione] | 0.05 to 5 mM | 0.05 to 5 mM | 0.05 to 5 mM | 0.05 to 5 mM | < 0.05 mM | 0.05 to 5 mM | – | – | – | – | – | –
– | 1 to 10 µM | 0.05 to 5 mM | Cc1ccc2nc3c(c(O)c2c1)-c1cccn1C3=O [Compound 777b, 11-hydroxy-9-methyl-5H-pyrrolizino[2,1-b]quinolin-5-one] | – | – | – | – | – | – | 0.05 to 5 mM | 0.05 to 5 mM | 0.05 to 5 mM | 0.05 to 5 mM | 0.05 to 5 mM | 0.05 to 5 mM
5 to 20 mM | 1 to 10 µM | – | O=C1c2c(n(Cc3ccc(Cl)cc3)c3c(C(F)(F)F)cccc3c2=O)-c2cccn21 [Compound 450a, 4-(4-Chlorobenzyl)-5-(trifluoromethyl)-9H-pyrrolizino[1,2-b]quinoline-9,10(4H)-dione] | 0.05 to 5 mM | 0.05 to 5 mM | 0.05 to 5 mM | 0.05 to 5 mM | 0.05 to 5 mM | 0.05 to 5 mM | – | – | – | – | – | –
0.05 to 5 mM | 1 to 10 µM | – | CCOc1c2c(nc3ccc(F)cc13)-c1cccn1C2=O [Compound 104b, 9-ethoxy-7-fluoro-10H-pyrrolizino[1,2-b]quinolin-10-one] | 0.05 to 5 mM | 0.05 to 5 mM | 0.05 to 5 mM | 0.05 to 5 mM | 0.05 to 5 mM | 0.05 to 5 mM | – | – | – | – | – | –
0.05 to 5 mM | 0.1 to 1 µM | – | O=C1c2c(n(Cc3cccc(Cl)c3)c3cc(F)ccc3c2=O)-c2cccn21 [Compound 497a, 4-(3-Chlorobenzyl)-6-fluoro-9H-pyrrolizino[1,2-b]quinoline-9,10(4H)-dione] | 0.05 to 5 mM | 0.05 to 5 mM | 0.05 to 5 mM | 0.05 to 5 mM | 0.05 to 5 mM | < 0.05 mM | – | – | – | – | – | –
0.05 to 5 mM | 0.1 to 1 µM | – | O=C1c2c([nH]c3cc(N4CCNCC4)c(C(F)(F)F)cc3c2=O)-c2cccn21 [Compound 397a, 6-(Piperazin-1-yl)-7-(trifluoromethyl)-9H-pyrrolizino[1,2-b]quinoline-9,10(4H)-dione] | 0.05 to 5 mM | 0.05 to 5 mM | 0.05 to 5 mM | 0.05 to 5 mM | 0.05 to 5 mM | 0.05 to 5 mM | – | – | – | – | – | –
0.05 to 5 mM | 0.1 to 1 µM | – | O=C1c2c([nH]c3cc(Cl)ccc3c2=O)-c2cccn21 [Compound 500a, 6-Chloro-9H-pyrrolizino[1,2-b]quinoline-9,10(4H)-dione] | 0.05 to 5 mM | 0.05 to 5 mM | < 0.05 mM | 0.05 to 5 mM | 0.05 to 5 mM | 0.05 to 5 mM | – | – | – | – | – | –

From patent US11040028B2, “Penicinotam derivative, preparation method and use thereof” (OCEAN UNIVERSITY OF CHINA, priority 2017, dated 2021)
